Laboratory results published in patent US10596263B2, “Pazopanib formulation” (Novartis AG, priority 2011, dated 2020).

Legend:
[1] = Physical stability (form conversion) of reconstituted pazopanib suspension, monitored by XRPD; assay type: physicochemical
Protocol: Regarding the use of buffers, physical stability of the invented suspension was determined to be a function of pH, temperature, buffering system, and buffer strength as shown in Table I (some repeat runs are shown).
By removing the sodium citrate from the buffering system the rate of formation of the citrate salt under both refrigerated and long term storage conditions was impeded. Suspensions containing citric acid and sodium phosphate buffering system at pH 4.0 with buffer strength from 0.05 to 0.20 M and no PVP were all stable up to 43 days at refrigerated conditions. At long term storage conditions of 25° C./60% RH form conversion was detected at day 7 but the citrate salt was first observed on day 20.
Table 4 depicts a qualitatively similar formulation to the exemplary formulation, Example 1. Both formulations were manufactured using the same unit operations and processing parameters. […] At long term storage conditions of 25° C./60% RH or room temperature the physical stability of the comparative suspension monitored by XRPD indicated a mixture of forms were detected at day 7 compared with the exemplary formulation (Table 3) that was stability up to 34 days. It was determined that the use of citric acid and trisodium citrate buffer system speed the conversion to the pazopanib citrate salt. It is believed that this is driven by the smaller buffering capacity of citric acid and trisodium citrate buffer.

[2] = In-vivo exposure of the drug after micronization; settings: micronized active substance
From the text: The pazopanib active substance is preferably micronized. […] Particle size reduction also helps to improve the mouth-feel of the suspension. Micronization may be achieved using techniques known in the art. According to one embodiment, particle size reduction is achieved through the use of fluid energy jet mill wherein the powder gets suspended in a high velocity nitrogen gas stream in a milling chamber, and particle size is reduced due to the principle of impact and attrition due to the high velocity collisions between particles suspended within the nitrogen gas stream, causing them to break down into smaller particles. Centrifugal force causes the larger, heavy particles to separate from smaller, lighter particles. The small particles are dragged by the escaping fluid stream towards the center of the mill, where they are discharged into filter bags, and the material is then collected into drums. The large particles are thrown outward where they recirculate and re-collide, causing them to breakdown. According to one embodiment, the resulting particle size distribution of pazopanib hydrochloride particles is >90% between 0.61 and 10.0 microns. In another embodiment, at least 50% is from 1 to 10 microns, preferably from 1.1 to 3.9 microns. In another embodiment 90% is 20 microns or less, preferably 10 microns or less.

[3] = Solubility of pazopanib in water at various pH; assay type: physicochemical
From the text: FIG. 2 is a graph showing the solubility of pazopanib in water at various pH.
Based on the pH-solubility curve of pazopanib (FIG. 2) the solubility profile between pH 3 and pH 6 is on a steep slope and therefore, small changes in pH will have a large change in solubility. At the lower pH levels the citrate and monohydrate salts predominate and at the higher pH the freebase predominates. When the suspension is buffered at pH 3.5 and below with citric acid and sodium phosphate buffering system, the drug substance in the suspension changes form to the hydrate and Citrate salts in less than 17 days after reconstitution under refrigerated storage condition 5° C. […] Therefore, the compositions of this invention are such that when reconstituted they preferably provide a suspension with a pH from 2.5 to 4.5, preferably a pH of from 3.0 to 4.2, and most preferably a pH of from 3.5 to 4.0.

[4] = Citric Acid/Sodium Citrate 0.2M, initial pH 4.0, PVP 0% wt/wt, 5° C./Ambient
[5] = Citric Acid/Sodium Citrate 0.5M, initial pH 4.0, PVP 0% wt/wt, 25° C./60% RH
[6] = Citric Acid/Sodium Phosphate 0.1M, initial pH 4.0, PVP 0% wt/wt, 25° C./60% RH
[7] = Citric Acid/Sodium Phosphate 0.2M, initial pH 4.0, PVP 0% wt/wt, 25° C./60% RH
[8] = citric acid and sodium phosphate buffer, pH 4.0, 0.05 to 0.20 M, no PVP, 25° C./60% RH

SMILES: Cc1ccc(Nc2nccc(N(C)c3ccc4c(C)n(C)nc4c3)n2)cc1S(N)(=O)=O [pazopanib, 5-[[4-[(2,3-dimethyl-2H-indazol-6-yl)methylamino]-2-pyrimidinyl]amino]-2-methylbenzenesulfonamide]
- Physical Stability ([1]; Citric Acid/Sodium Citrate 0.05M, initial pH 4.0, PVP 0% wt/wt, 5° C./Ambient): 43 days
- Physical Stability: conversion to citrate salt by day [1, 4]: by day 42
- Physical Stability: mixture of forms by day [1, 4]: day 21;
- Physical Stability: conversion to citrate salt by day ([1]; Citric Acid/Sodium Citrate 0.2M, initial pH 4.0, PVP 0% wt/wt, 25° C./60% RH): day 7
- Physical Stability: conversion to citrate salt by day ([1]; Citric Acid/Sodium Citrate 0.5M, initial pH 4.0, PVP 0% wt/wt, 5° C./Ambient): day 14
- Physical Stability: conversion to citrate salt by day [1, 5]: day 14
- Physical Stability: mixture of forms at [1, 5]: initial;
- Physical Stability ([1]; Citric Acid/Sodium Phosphate 0.05M, initial pH 4.0, PVP 0% wt/wt, 5° C./Ambient): 43 days
- Physical Stability ([1]; Citric Acid/Sodium Phosphate 0.05M, initial pH 4.0, PVP 0% wt/wt, 25° C./60% RH): At least 7 Days;
- Physical Stability ([1]; Citric Acid/Sodium Phosphate 0.1M, initial pH 4.0, PVP 0% wt/wt, 5° C./Ambient): 43 days
- Physical Stability [1, 6]: At least 7 Days;
- Physical Stability: mixture of forms by day [1, 6]: day 20
- Physical Stability: conversion to citrate salt by day ([1]; Citric Acid/Sodium Phosphate 0.2M, initial pH 3.0, PVP 0% wt/wt, 5° C./Ambient): day 17
- Physical Stability: conversion to citrate salt by day ([1]; Citric Acid/Sodium Phosphate 0.2M, initial pH 3.2, PVP 0% wt/wt, 5° C./Ambient): day 17
- Physical Stability: conversion to citrate salt by day ([1]; Citric Acid/Sodium Phosphate 0.2M, initial pH 3.5, PVP 0% wt/wt, 5° C./Ambient): day 17
- Physical Stability ([1]; Citric Acid/Sodium Phosphate 0.2M, initial pH 4.0, PVP 0% wt/wt, 5° C./Ambient): 43 days
- Physical Stability [1, 7]: At least 7 Days;
- Physical Stability: conversion to citrate salt by day [1, 7]: day 20
- Physical Stability ([1]; PVP added, citric acid and sodium phosphate, pH 4.0, buffering strength 0.05 M): at least 20 days
- pazopanib monohydrochloride salt maintained until ([1]; PVP levels between 3.8 to 7.4% w/w, inclusive, citric acid and sodium phosphate, pH 4.0, 0.05 M): 34 days
- drug substance changes form to the hydrate and Citrate salts after reconstitution ([1]; buffered at pH 3.5 and below, citric acid and sodium phosphate, refrigerated 5° C.): less than 17 days
- form conversion started on day ([1]; citric acid and sodium citrate buffer, pH 4.0, buffer strength 0.05 M to 0.5 M, 5° C.): ≥ 14 days
- Conversion of pazopanib to the citrate salt observed at ([1]; citric acid and sodium citrate buffer, pH 4.0, buffer strength 0.05 M to 0.5 M, 25° C./60% RH): initial to day 7
- citrate salt first observed on day [1, 8]: 20 days
- form conversion detected at day [1, 8]: 7 days
- stable (physical stability of suspension) ([1]; citric acid and sodium phosphate buffer, pH 4.0, 0.05 to 0.20 M, no PVP, refrigerated conditions): up to 43 days
- in-vivo exposure, effect of micronization [2]: enhance
- pH-solubility profile ([3]; between pH 3 and pH 6, water (FIG. 2)): steep slope
- solubility, effect of micronization ([3]; micronized active substance): enhance
